Data: patent US7144903B2, “CCR4 antagonists” (Amgen Inc., priority 2001, dated 2006)
Like-named read-outs stand apart in the source and are kept apart here.

Target: T1, CCR4 (Homo sapiens, UniProt P51679)
T1 construct: cells expressing CCR4 (e.g., CEM cells, available from the ATCC); host or cells: CEM cells
T1 sequence (P51679 1-360): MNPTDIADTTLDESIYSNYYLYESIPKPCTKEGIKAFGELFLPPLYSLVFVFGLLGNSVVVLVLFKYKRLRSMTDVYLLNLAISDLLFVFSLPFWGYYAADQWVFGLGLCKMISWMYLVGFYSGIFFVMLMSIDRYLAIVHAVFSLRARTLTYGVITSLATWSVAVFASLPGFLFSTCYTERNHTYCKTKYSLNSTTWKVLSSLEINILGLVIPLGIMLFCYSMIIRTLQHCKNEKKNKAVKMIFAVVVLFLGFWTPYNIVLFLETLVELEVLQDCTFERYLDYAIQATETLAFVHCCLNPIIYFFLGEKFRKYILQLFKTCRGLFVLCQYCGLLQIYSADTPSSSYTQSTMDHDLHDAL
Assay: CCR4 binding assay: inhibition of 125I-TARC binding to cells expressing CCR4 (e.g., CEM cells)
Description: This example illustrates a CCR4 binding assay that can be used for evaluating the compounds of the present invention.
Detection of Radiolabelled TARC and/or MDC Binding to CCR4
^125I-labelled TARC and MDC are available from commercial sources (e.g., Amersham-Pharmacia or Perkin Elmer Life Sciences). All buffers and materials are available from commercial sources (e.g., Gibco BRL, Sigma). To measure binding of ^125I-TARC or ^125I-MDC to cells expressing CCR4 (e.g., CEM cells, available from the ATCC), the ^125I-TARC or ^125I-MDC is diluted to a concentration of approximately 200 pM in a buffered saline solution (e.g., RPMI supplemented with 0.5% bovine serum albumin), and added to an equal volume of a suspension of cells (e.g., CEM cells at 5×10^6 cells/mL). The resulting mixture is incubated for a period of time (e.g., 2 hours). The unbound ^125I-TARC or ^125I-MDC is separated from the cells by filtration, e.g., by passage through GF/B filter plate (Packard Biosciences) pre-treated with 0.3% polyethyleneimine (Sigma), using a Packard Filtermate 96 (Packard Biosciences). The amount of ^125I-TARC or ^125I-MDC retained with the cells on the filterplate is measured by adding a small amount of scintillation fluid (e.g., 50 μL of Microscint-20, obtained from Packard Biosciences), and reading scintillation on appropriate detection equipment, e.g., a Packard TopCount 383 (Packard Biosciences).
Non-specific binding of ^125I-TARC or ^125I-MDC can be estimated by measuring the amount of ^125I-TARC or ^125I-MDC retained with the cells on the filterplate when the assay is performed in the presence of a large excess of unlabelled TARC or MDC.
Inhibition of ^125I-TARC or ^125I-MDC binding to CCR4 is defined as a decrease in the retention of ^125I-TARC or ^125I-MDC to the cells on the filterplate.
The assay described above varies only moderately from standardly used procedures, e.g., Imai et al. (1997) J. Biol. Chem. 272:15036–15042, Imai et al. (1998) J. Biol. Chem. 273:1764–1768.

[1] = CCR4 antagonist activity, inhibition of 125I-TARC binding, read-out: IC50

Compound | IC50 [1] [µM] | IC50 [µM]
CC(C)(C)c1csc(Nc2ccccc2N2CCOCC2)n1 [Compound 1] | < 1 | –
Cc1cccc(Nc2nc(C(C)(C)C)cs2)c1C [Compound 2] | > 1 | –
CC(C)(C)c1csc(NCc2ccccc2)n1 [Compound 3] | < 1 | –
CC(C)(C)c1csc(Nc2ccc(Cl)c3ccccc23)n1 [Compound 4] | < 1 | –
CC(C)(C)c1csc(Nc2cccc3c2CCCC3)n1 [Compound 5] | > 1 | –
Cc1c(Br)cccc1Nc1nc(C(C)(C)C)cs1 [Compound 6] | > 1 | –
CC(C)(C)c1csc(Nc2cccc3ncccc23)n1 [Compound 7] | < 1 | –
CC(C)(C)Cc1csc(Nc2cccc3ccccc23)n1 [Compound 8] | > 1 | –
CCCc1sc(Nc2cccc3ccccc23)nc1C(C)(C)C [Compound 9] | > 1 | –
Cc1sc(Nc2cccc3ccccc23)nc1C(C)(C)C [Compound 10] | > 1 | –
CC(C)(C)c1csc(Nc2cccc3ccccc23)n1 [Compound 11] | > 1 | –
CC(C)c1csc(Nc2cccc3ccccc23)n1 [Compound 12] | > 1 | –
CCOC(=O)CC(C)(C)c1csc(Nc2cccc3ccccc23)n1 [Compound 13] | > 1 | –
CC(=O)c1csc(Nc2cccc3ccccc23)n1 [Compound 15, 4-Acetoyl-2-naphthylamino thiazole] | > 1 | –
Clc1ccc2nc(Nc3cccc4ccccc34)sc2c1 [Compound 18] | – | > 1
c1ccc(CN2CCc3sc(Nc4cccc5ccccc45)nc3C2)cc1 [Compound 19] | < 1 | –
CC(C)(C)c1csc(Nc2cccnc2CCCC2CCCC2)n1 [Compound 20, (4-tert-Butyl-thiazol-2-yl)-[2-(3-cyclopentyl-propyl)-pyridin-3-yl]-amine] | > 1 | –
Cn1ccc2c(Nc3nc(C(C)(C)C)cs3)cccc21 [Compound 21, (4-tert-Butyl-thiazol-2-yl)-(1-methyl-1H-indol-4-yl)-amine] | < 1 | –
Cn1ccc2c(Nc3nc(CN(Cc4ccccc4OC(F)(F)F)CC4CCCCC4)cs3)cccc21 [Compound 24, (4-{[Cyclohexylmethyl-(2-trifluoromethoxy-benzyl)-amino]-methyl}-thiazol-2-yl)-(1-methyl-1H-indol-4-yl)-amine] | < 1 | –
FC(F)(F)c1ccccc1CN(Cc1csc(Nc2cccc3ncccc23)n1)CC1CCCCC1 [Compound 35] | < 1 | –
Cc1cccc(Nc2nc(CN(CC(C)C)CC(C)C)co2)c1C [Compound 45, {4-[(Diisobutylamino)-methyl]-oxazol-2-yl}-(2,3-dimethyl-phenyl)-amine] | < 1 | –
CC(C)CCCc1ccccc1Nc1nc(C(C)(C)C)cs1 [Compound 49] | < 1 | –
